Measurements taken from patent US20090143416A1, “Method of Inducing Tolerance of Plants Against Bacterioses” (priority 2006, published 2009).

Key:
Erwinia carotovora = assay: Preventive action on potatoes against Erwinia carotovora (field trial); assay type: in vivo; details: under the trial conditions (potato field trial); assumed, not tested alone
Description: (§1) The visually determined percentages of infected leaf areas were converted into efficacies in % of the untreated control:
(§2) An efficacy of 0 means that the infection level of the treated plants corresponds to that of the untreated control plants; an efficacy of 100 means that the treated plants were not infected.

Xathomonas ssp = assay: Preventive action on tomatoes against Xathomonas ssp (field trial); assay type: in vivo; details: under the trial conditions (tomato field trial); assumed, not tested alone
Description: The active compounds used were applied as commercially available formulations.
as §1
The efficacy (E) is calculated as follows using Abbot's formula: […]
α corresponds to the fungal infection of the treated plants in % and β corresponds to the fungal infection of the untreated (control) plants in %
as §2
The trial was conducted under field conditions. Tomato plants of variety Carmen at a height of app. 10 cm were planted and grown under standard conditions with adequate supply of water and nutrients. After 18 days a first application of active compounds was made, which was repeated five times every 5 to 8 days. No other compounds were applied for pathogen control. Infection with pathogens occurred. Each treatment consisted of four replicants in a randomized block design. The disease incidences were evaluated 46 days after the first application (Xathomonas ssp.).

## [Cl-].[Cu+2].[Cu+2].[OH-].[OH-].[OH-] [copper, copper oxychloride]
Erwinia carotovora
  efficacy against Erwinia carotovora: very close to zero
Xathomonas ssp
  efficacy against Xathomonas: very close to zero
